Here are results for four compounds from US6586413B2, “Methods and compositions for reducing ischemic injury of the heart by administering adenosine receptor agonists and antagonists” (The United States of America as represented by the …, priority 1999, dated 2003).

For assay [1], the system named is ventricular myocytes cultured from chick embryos. Nature of the assay: Pharmacological preconditioning: 5 min exposure to agent, then 90 min simulated ischemia. It counts as cell-based. Particulars: for preconditioning / cardioprotective effect: agent alone, 5 min exposure before 90 min ischemia; for maximal protection compared with full agonist: partial agonist vs full agonist (CCPA or Cl-IB-MECA); for effect of high concentration of partial agonist on protection by full agonist: with full agonist CCPA or Cl-IB-MECA. Here is the method: FIG. 14 is a graph showing that the partial A1 receptor agonist, 8-butylaminoCPA, mimics the cardioprotective effect of ischemic preconditioning. Ventricular myocytes were cultured from chick embryos 14 days in ovo. The ability of the partial A1 agonist, 8-butylaminoCPA (8-butylamino-N^6-cyclopentyladenosine), to induce preconditioning was determined. In brief, myocytes were exposed to 8-butylaminoCPA at the indicated concentrations for 5 min, incubated for 10 min with agonist-free medium, and then exposed to simulated ischemia for 90 min. The extent of myocyte injury was quantitated at the end of the 90 min period by determinating the percentage of cells killed and the amount of creatine kinase (CK) released (units per milligram of cell protein). Data are means±SE of values from five independent experiments.
Determination of myocyte injury was made at the end of the ninety-minute hypoxia, at which time myocytes were taken out of the hypoxic incubator and re-exposed to room air (normal % O2). Aliquots of the media were then obtained for creatine kinase (CK) activity measurement, which is followed by quantitation of the number of viable cells. Measurement of basal level of cell injury was made after parallel incubation of control cells under normal % O2. The extent of hypoxia-induced injury to the ventricular cell was quantitatively determined by the percentages of cells killed and by the amount of CK released into the media according to a previously described method (16, 23). […] In brief, the media were replaced with a trypsin-EDTA buffer to detach the cells, which was then followed by sedimentation of the viable myocytes. Parallel changes in % cells killed and CK released (16, 23) further validated this assay for % cells killed. The amount of CK was measured as enzyme activity (unit/mg), and increases in CK activity above the control level were determined. The percentage of cells killed was calculated as the number of cells obtained from the control group (representing cells not subjected to any hypoxia or drug treatment) minus the number of cells from the treatment group divided by number of cells in control group multiplied by 100%.
Media were then replaced with fresh media, which was then followed by exposure to 90-minute simulated ischemia and the data graphed.

The subject of another assay is diacylglycerol level. Nature of the assay: Diacylglycerol (DAG) accumulation in [3H]myristate-labeled ventricular myocytes. It counts as cell-based, chick. Particulars: 1 μM 8-butylaminoCPA or 10 nM MRS1760 for 5 min. The protocol: FIGS. 15A and 15B show the coupling of the partial A1 and A3 receptor agonists to stimulation of DAG accumulation and the differential inhibitory effects of the phospholipase C inhibitor U-73122 on the cardioprotection caused by 8-butylaminoCPA or by MRS1760, respectively. FIG. 15A: Ventricular myocytes were labeled with [^3H]myristate (Dupont, 49 Ci/mmol, […]) for 24 hours, exposed to 1 μM of 8-butylaminoCPA or 10 nM MRS1760 for 5 min, and the amount of DAG was determined by thin-layer chromatography. Data are expressed as the percentage increase in the amount of DAG relative to that for unstimulated cells, and are means±SE of values from five independent experiments. FIG. 15B: Effects of U-73122 on cardioprotection induced by 8-butylaminoCPA or by MRS1760 were determined. U-73122 (10 μM) was either included or not during the 5 min exposure of ventricular myocytes to 1 μM 8-butylaminoCPA or 10 nM MRS1760, and cardiac injury was assessed after ischemia as described herein below. […]
Quantitation of diacylglycerol (DAG) and measurement of phospholipase D (PLD) activity were carried out as previously described (35, 36). The formation of [^3H] phosphotidylethanol (PEt) during agonist exposure in media containing 0.5% (v/v) ethanol was determined by scintillation counting following its separation from other phospholipids on thin layer chromatography as described (36). […]

For another assay, the system named is phospholipase C. Nature of the assay: Phospholipase C activity in cardiac myocytes. The assay is classed as cell-based, chick. The protocol:
To further test this notion, the ability of 8-butylaminoCPA to stimulate phospholipase C as measured by […] formation, a downstream signaling molecule that mediates the cardioprotective effect of adenosine A1 receptor was determined.

In the next assay the target is T1, A1 receptor (Rattus norvegicus, UniProt P25099).
T1 sequence (P25099 1-326): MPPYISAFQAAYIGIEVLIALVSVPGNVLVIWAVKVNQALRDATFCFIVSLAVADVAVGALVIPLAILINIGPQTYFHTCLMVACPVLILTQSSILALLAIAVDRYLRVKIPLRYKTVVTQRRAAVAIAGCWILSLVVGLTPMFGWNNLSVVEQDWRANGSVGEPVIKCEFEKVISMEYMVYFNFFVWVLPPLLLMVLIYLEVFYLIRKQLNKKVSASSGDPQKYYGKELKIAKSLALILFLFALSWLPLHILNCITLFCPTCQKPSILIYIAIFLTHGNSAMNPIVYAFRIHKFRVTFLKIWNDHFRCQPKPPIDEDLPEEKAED
The settings on record: Table II; cited from earlier work.

The next assay deals with A2a receptor (Rattus norvegicus, UniProt P30543). The settings on record: Table II; cited from earlier work.
The next assay addresses A3 receptor. Particulars: Table II; cited from earlier work.
For the next assay, the system named is phospholipase D. The experiment in a line: Phospholipase D activity ([3H]phosphatidylethanol formation). It counts as cell-based, chick. The protocol:
Quantitation of diacylglycerol (DAG) and measurement of phospholipase D (PLD) activity were carried out as previously described (35, 36). The formation of [^3H] phosphotidylethanol (PEt) during agonist exposure in media containing 0.5% (v/v) ethanol was determined by scintillation counting following its separation from other phospholipids on thin layer chromatography as described (36). The level of [^3H] PEt represents an index of the PLD activity. The position of DAG or PEt was determined by immersing the thin layer plate in an iodine chamber and their levels were expressed as a percentage of total lipids. Data were expressed as the percentage increase in the amount of DAG or PEt relative to that for unstimulated cells.

A2a receptor, sequence (P30543 whole entry): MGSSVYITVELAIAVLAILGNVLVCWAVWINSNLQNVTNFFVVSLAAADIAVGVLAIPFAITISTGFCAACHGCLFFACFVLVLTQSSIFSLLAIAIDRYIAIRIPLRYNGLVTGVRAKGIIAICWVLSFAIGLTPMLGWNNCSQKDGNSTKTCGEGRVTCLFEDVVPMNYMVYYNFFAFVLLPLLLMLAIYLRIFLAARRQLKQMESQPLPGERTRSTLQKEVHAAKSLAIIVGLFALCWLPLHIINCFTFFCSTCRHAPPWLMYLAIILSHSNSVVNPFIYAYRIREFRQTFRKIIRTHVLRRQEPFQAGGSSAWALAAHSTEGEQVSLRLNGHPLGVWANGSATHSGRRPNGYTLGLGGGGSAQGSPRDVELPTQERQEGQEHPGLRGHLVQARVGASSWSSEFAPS

As to `CCCCNc1nc2c(NC3CCCC3)ncnc2n1[C@@H]1O[C@H](CO)[C@@H](O)[C@H]1O` [8-butylaminoCPA, 8-butylamino-N^6-cyclopentyladenosine], in assay [1], the “preconditioning / cardioprotective effect” value was “able to induce a marked cardioprotective effect”, the “maximal protection compared with full agonist” value is “less than that produced by the full agonist CCPA” and the “effect of high concentration of partial agonist on protection by full agonist” value was “able to antagonize the protection caused by the full agonist CCPA”. In addition, in the assay on diacylglycerol level, the diacylglycerol level result was “an increase in the diacylglycerol level”. In the assay on phospholipase C, the PLC activity entry is “able to stimulate PLC activity”.

Usually Ki stands for the dissociation constant of the complex between target and ligand, obtained from inhibition or displacement. `CCNC(=O)C1OC(n2cnc3c(NC(=O)Nc4ccccc4C(F)(F)F)ncnc32)C(O)C1O` (stereo not shown) [Compound 4d, N^6-((2-trifluoromethyl)carbamoyl)adenosine-5′-uronamide]: the Ki was 0.384 µM at A1 receptor, more than 10 µM at A2a receptor and 0.054 µM at A3 receptor.

In the case of `CNC(=O)C1OC(n2cnc3c(NOc4ccccc4)ncnc32)C(O)C1O` (stereo not drawn) [Compound 11, 6-(O-Phenylhydroxylamino)purine-9-beta-ribofuranoside-5′-N-methyluronamide], the Ki at A1 receptor was 2.06 µM; on A2a receptor, 66.3 µM; at A3 receptor, 1.34 µM.

With `OC[C@@]12C[C@@H]1[C@@H](n1cnc3c(NCc4cccc(I)c4)nc(Cl)nc31)[C@H](O)[C@@H]2O` [MRS1760, (1′R,2′R,3′S,4′R,5′S)-4-{2-Chloro-6-[(3-iodophenylmethyl)amino]purin-9-yl}-1-(hydroxymethyl)bicyclo[3.1.0]-hexane-2,3-diol], in assay [1], the “preconditioning / cardioprotective effect” value is given as “able to induce a marked protective effect against ischemia”, the “maximal protection compared with full agonist” value was “less than the maximal effect caused by Cl-IB-MECA” and the “effect of high concentration of partial agonist on protection by full agonist” value is “blocked the protection induced by the full agonist Cl-IB-MECA”. Also, the diacylglycerol level entry with diacylglycerol level is “an increase in the diacylglycerol level”. Also, the PLD activity entry in the assay on phospholipase D is given as “able to stimulate PLD activity”.
